A word on the pIC50: it is the IC50 on a negative log10 scale, so that one unit is a factor of ten. The inhibition is the change of the read-out against control, counted positive when it falls.

Here are results for 6 compounds from ChEMBL document CHEMBL4033638, “Effect of natural and semi-synthetic cadinanes from Heterotheca inuloides on NF-κB, Nrf2 and STAT3 signaling pathways and evaluation of their in vitro cytotoxicity in human cancer cell lines” (Bioorg Med Chem, 2017).

pIC50: −log10 of the molar value. Calls of active or inactive are those of the source. No cut-off for these calls is given here.

One data set deals with NIH3T3. The experiment in a line: Cytotoxicity against mouse NIH/3T3 cells infected with lentivirus encoding nuclear restricted red fluorescent protein assessed as reduction in cell viability up to 100 uM after 6 hrs by microscopic method. Format: cell-based. The settings on record: nih3t3, 6 h.
The nature of data set [1]: Inhibition of TNFalpha-stimulated NFkappaB (unknown origin) expressed in mouse NIH-3T3-KBFLuc cells preincubated for 15 mins followed by TNFalpha stimulation for 6 hrs by luciferase reporter gene assay. The format is cell-based. The settings on record: Homo sapiens. On the technique in general: Reporter assays use an easily measured gene product as a stand-in for the process of interest.

The nature of data set [2]: Inhibition of TNFalpha-stimulated NFkappaB (unknown origin) expressed in mouse NIH-3T3-KBFLuc cells at 50 uM after 6 hrs by luciferase reporter gene assay relative to control. Format: cell-based. The settings on record: Homo sapiens.
Data set [3] deals with Signal transducer and activator of transcription 3 (Homo sapiens) (UniProt P40763). Kind of data set: Inhibition of IFNgamma-stimulated STAT3 (unknown origin) activation expressed in human HeLa cells at 50 uM after 6 hrs by luciferase reporter gene assay relative to control. The format is cell-based.
Sequence of Signal transducer and activator of transcription 3 (Homo sapiens) (P40763 whole entry): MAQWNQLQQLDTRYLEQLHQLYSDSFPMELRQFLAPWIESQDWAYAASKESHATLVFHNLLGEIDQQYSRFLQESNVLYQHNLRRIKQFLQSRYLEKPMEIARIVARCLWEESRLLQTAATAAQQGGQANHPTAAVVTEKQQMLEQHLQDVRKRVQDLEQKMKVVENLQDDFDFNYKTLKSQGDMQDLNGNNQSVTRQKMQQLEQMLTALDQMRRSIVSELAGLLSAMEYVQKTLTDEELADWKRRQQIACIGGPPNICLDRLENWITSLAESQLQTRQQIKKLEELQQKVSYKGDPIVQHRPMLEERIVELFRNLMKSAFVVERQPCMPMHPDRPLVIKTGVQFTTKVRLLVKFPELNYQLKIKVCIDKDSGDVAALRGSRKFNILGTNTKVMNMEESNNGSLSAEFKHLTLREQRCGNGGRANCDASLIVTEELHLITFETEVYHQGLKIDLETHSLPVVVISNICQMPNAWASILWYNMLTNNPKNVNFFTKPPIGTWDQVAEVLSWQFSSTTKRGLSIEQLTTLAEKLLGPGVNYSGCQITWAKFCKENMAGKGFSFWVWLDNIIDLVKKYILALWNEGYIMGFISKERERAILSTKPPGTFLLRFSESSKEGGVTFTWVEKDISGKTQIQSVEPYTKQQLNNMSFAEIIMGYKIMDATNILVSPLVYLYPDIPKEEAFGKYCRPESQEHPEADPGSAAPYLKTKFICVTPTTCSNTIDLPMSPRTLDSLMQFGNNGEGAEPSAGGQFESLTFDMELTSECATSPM
Data set [4] concerns the target T1, Nuclear factor erythroid 2-related factor 2 (Homo sapiens) (UniProt Q16236).
T1 sequence (whole entry): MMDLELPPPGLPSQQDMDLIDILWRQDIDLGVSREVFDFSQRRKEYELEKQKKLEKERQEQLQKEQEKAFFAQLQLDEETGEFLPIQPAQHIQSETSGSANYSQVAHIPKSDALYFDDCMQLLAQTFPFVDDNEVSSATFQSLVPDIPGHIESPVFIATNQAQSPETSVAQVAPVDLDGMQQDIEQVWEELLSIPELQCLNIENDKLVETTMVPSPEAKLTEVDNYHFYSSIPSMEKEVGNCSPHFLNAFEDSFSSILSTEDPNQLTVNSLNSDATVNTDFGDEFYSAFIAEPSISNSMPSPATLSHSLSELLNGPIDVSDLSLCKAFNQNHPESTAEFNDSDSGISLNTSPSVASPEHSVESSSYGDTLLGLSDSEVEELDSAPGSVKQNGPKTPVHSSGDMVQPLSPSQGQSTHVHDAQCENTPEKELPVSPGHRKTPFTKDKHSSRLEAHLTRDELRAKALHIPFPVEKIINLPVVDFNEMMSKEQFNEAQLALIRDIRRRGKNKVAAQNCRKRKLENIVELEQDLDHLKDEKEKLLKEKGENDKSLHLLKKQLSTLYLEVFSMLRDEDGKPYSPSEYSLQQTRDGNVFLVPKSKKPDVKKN
The experiment in a line: Activation of Nrf2 in human HaCaT-ARE-Luc cells at 50 uM after 6 hrs by luciferase reporter gene assay relative to control. The format is cell-based.

The subject of data set [5] is HaCaT. Kind of data set: Antioxidant activity in human HaCaT cells assessed as inhibition of TBHP-induced ROS accumulation by measuring ROS level at 10 uM preincubated with cells followed by TBHP addition by CM-H2DCFDA dye-based fluorescence assay relative to control. Format: functional. Also noted: scale not given: the % may be the effect or the level left.
Data set [6] concerns SK-LU-1. The experiment in a line: Antiproliferative activity against human SK-LU-1 cells after 48 hrs by sulforhodamine B assay. The format is functional, cell-based. The settings on record: SK-LU-1, 48 h.
For data set [7], the system named is HaCaT. The experiment in a line: Induction of ROS accumulation in human HaCaT cells at 10 to 100 uM by CM-H2DCFDA dye-based fluorescence assay. The format is functional, cell-based.
For the next data set, the species on record is Mus musculus. The experiment in a line: Inhibition of IKK in mouse NIH-3T3-KBF-Luc cells assesed as downregulation of TNFalpha-stimulated phospho-IkappaBalpha protein expression levels at 10 to 100 uM preincubated for 15 mins followed by TNFalpha stimulation for 20 mins by Western blot analysis. A general note: Immunoblotting shows a protein as a band on a membrane.

Data set [8] deals with HCT-15. The experiment in a line: Antiproliferative activity against human HCT15 cells at 50 uM after 48 hrs by sulforhodamine B assay relative to control. The format is functional. The settings on record: HCT-15, 48 h.
Data set [9] deals with SK-LU-1. Kind of data set: Antiproliferative activity against human SK-LU-1 cells at 50 uM after 48 hrs by sulforhodamine B assay relative to control. Format: functional. The settings on record: SK-LU-1, 48 h. A general note: The SRB assay estimates cell density from bound dye.
Data set [10] deals with HCT-15. Kind of data set: Antiproliferative activity against human HCT15 cells after 48 hrs by sulforhodamine B assay. The format is functional, cell-based. The settings on record: HCT-15, 48 h.
In data set [11] the test system is K562. The experiment in a line: Antiproliferative activity against human K562 cells at 50 uM after 48 hrs by sulforhodamine B assay relative to control. The settings on record: K562, 48 h. Format: functional.
The subject of data set [12] is PC-3. Kind of data set: Antiproliferative activity against human PC3 cells at 50 uM after 48 hrs by sulforhodamine B assay relative to control. Format: functional. The settings on record: PC-3, 48 h.
In data set [13] the test system is HaCaT. Kind of data set: Antioxidant activity in human HaCaT cells assessed as inhibition of TBHP-induced ROS accumulation by measuring ROS level at 75 uM preincubated with cells followed by TBHP addition by CM-H2DCFDA dye-based fluorescence assay relative to control. Format: functional. Also noted: scale not given: the % may be the effect or the level left.
In data set [14] the test system is HaCaT. Kind of data set: Antioxidant activity in human HaCaT cells assessed as inhibition of TBHP-induced ROS accumulation by measuring ROS level at 25 uM preincubated with cells followed by TBHP addition by CM-H2DCFDA dye-based fluorescence assay relative to control. The format is functional. Also on record: scale not given: the % may be the effect or the level left.

Data set [15] relates to U-251. The experiment in a line: Antiproliferative activity against human U251 cells at 50 uM after 48 hrs by sulforhodamine B assay relative to control. Format: functional. The settings on record: U-251, 48 h.
The subject of data set [16] is K562. The experiment in a line: Antiproliferative activity against human K562 cells after 48 hrs by sulforhodamine B assay. Format: functional, cell-based. The settings on record: K562, 48 h.
Data set [17] has as its system HaCaT. Kind of data set: Antioxidant activity in human HaCaT cells assessed as inhibition of TBHP-induced ROS accumulation by measuring ROS level at 100 uM preincubated with cells followed by TBHP addition by CM-H2DCFDA dye-based fluorescence assay relative to control. Also on record: scale not given: the % may be the effect or the level left. Format: functional.

Data set [18] concerns MCF7. Kind of data set: Antiproliferative activity against human MCF7 cells at 50 uM after 48 hrs by sulforhodamine B assay relative to control. The settings on record: MCF7, 48 h. Format: functional.
Data set [19] has as its system HaCaT. The experiment in a line: Antioxidant activity in human HaCaT cells assessed as inhibition of TBHP-induced ROS accumulation by measuring ROS level at 50 uM preincubated with cells followed by TBHP addition by CM-H2DCFDA dye-based fluorescence assay relative to control. The format is functional. Also noted: scale not given: the % may be the effect or the level left.

The nature of data set [20]: Cytotoxicity against human gingival fibroblasts assessed as decrease in cell viability at 50 uM after 48 hrs by sulforhodamine B dye-based assay relative to control. The settings on record: gingival fibroblast.
Data set [21] relates to MCF7. The experiment in a line: Antiproliferative activity against human MCF7 cells after 48 hrs by sulforhodamine B assay. Format: functional, cell-based. The settings on record: MCF7, 48 h.
Data set [22] deals with U-251. Kind of data set: Antiproliferative activity against human U251 cells after 48 hrs by sulforhodamine B assay. The settings on record: U-251, 48 h. The format is functional, cell-based.
The subject of data set [23] is PC-3. The experiment in a line: Antiproliferative activity against human PC3 cells after 48 hrs by sulforhodamine B assay. Format: functional, cell-based. The settings on record: PC-3, 48 h.
A short description of data set [24]: Cytotoxicity against human gingival fibroblasts assessed as decrease in cell viability at 50 uM after 48 hrs by sulforhodamine B dye-based assay. The settings on record: gingival fibroblast.
Data set [25] concerns HaCaT. Kind of data set: Antioxidant activity in human HaCaT cells assessed as inhibition of TBHP-induced ROS accumulation by measuring ROS level preincubated with cells followed by TBHP addition by CM-H2DCFDA dye-based fluorescence assay relative to control. The format is functional. Also on record: scale not given: the % may be the effect or the level left.

As to `Cc1cc2c(C(C)C)ccc(C)c2cc1O`, the Activity entry in the data set on NIH3T3 was “Non-Toxic”. For the same compound, in [1], the negative logarithm of the IC50 (pIC50) was 4.78. For the same compound, the inhibition in [2] stood at 61.5%; in data set [3] it was 3.5%. The compound also had a fold change (FC) in data set [4] of 1.7.

For the compound `CC1=CC[C@H](C(C)C)c2cc(C)c(O)cc21`, in the data set with NIH3T3, the Activity entry is on record as “Non-Toxic”. Also, the pIC50 in data set [1] is 4.14. The inhibition amounted to 50.8% in [2] and 2.1% in data set [3]. In [4], this compound displayed a fold change (FC) of 3.1.

For the compound `CC1=CC[C@H](C(C)C)c2cc(C)c(OC(=O)c3ccc(C)cc3)cc21`, the Activity entry with NIH3T3 is recorded as “Non-Toxic”; in the data set with HaCaT [5], 74.7%; with HaCaT [13], 52%; in the data set with HaCaT [14], 64.5%; in the data set with HaCaT [17], 25.9%; with HaCaT [19] it was 55.8%. For the same compound, the pIC50 in the data set on SK-LU-1 [6] is 4.47; in the data set with HCT-15 [10], 4.39; in [1] it was 4.33; in the data set with K562 [16], 4.51. Further, the outcome with HaCaT [7] was inactive. The inhibition result in the data set listed under Mus musculus is “Active”. Also, the inhibition at 50 µM is 78.9% with HCT-15 [8]; 85.4% in the data set with SK-LU-1 [9]; 100% in the data set on K562 [11]; 49.6% in the data set on PC-3 [12]; 67.7% in the data set on U-251 [15]; 65% in the data set with MCF7 [18]. Further, the values for the inhibition in data set [2] and in data set [3] were 76% and 3.1%, respectively. In data set [4], the fold change (FC) came out at 9.4.

Consider `Cc1cc2c(C(C)C)ccc(C)c2cc1OC(=O)c1ccc([N+](=O)[O-])cc1`, for which the pIC50 was 5.03 in the data set on SK-LU-1 [6]; 5.10 with MCF7 [21]; 5.10 with HCT-15 [10]; 5.11 with U-251 [22]; 4.76 in the data set on PC-3 [23]; 5.64 in the data set on K562 [16]. Besides, the Activity in data set [20] is given as 43.03%. The inhibition at 50 µM was 97.6% in the data set with HCT-15 [8]; 100% in the data set with SK-LU-1 [9]; 100% in the data set with K562 [11]; 100% with PC-3 [12]; 100% with U-251 [15]; 100% in the data set with MCF7 [18]. In addition, the results for the inhibition in data set [2] and in data set [3] were 18.5% and 1.6%, respectively. This compound also gave a fold change (FC) in data set [4] of 1.8.

Consider `Cc1cc2c(C(C)C)ccc(C)c2cc1OC(=O)Nc1ccccc1`, for which the pIC50 in the data set on SK-LU-1 [6] was 5.00; with HCT-15 [10] it was 5.41; in the data set on U-251 [22] it was 4.80; with PC-3 [23] it was 5.06; in the data set on K562 [16], 4.85. The inhibition at 50 µM came out at 84.7% with HCT-15 [8]; 90.4% in the data set on SK-LU-1 [9]; 100% with K562 [11]; 44.7% in the data set on PC-3 [12]; 100% in the data set on U-251 [15]; 100% in the data set with MCF7 [18]. Further, in [24], the Activity entry is listed as “Non-Toxic”. Also, the inhibition in data set [2] was 13.3%; in data set [3], 3%. In [4], this compound displayed a fold change (FC) of 1.4.

Turning to `CC(=O)N[C@@H](CS)C(=O)O` [ACETYLCYSTEINE], in the data set on HaCaT [25], the Activity was determined as 1%.
